The source of these data is paper PMC9281569, “Two HCN4 Channels Play Functional Roles in the Zebrafish Heart” (Frontiers in Physiology, 2022).

Data set [1] concerns developing zebrafish embryos. In words: Antisense morpholino knockdown: heart rate of zebrafish embryos. The following applies: 200 μM MO into 1-cell embryos. Format: in vivo, zebrafish (Danio rerio). As to the method:
The heart rate of zebrafish embryos was measured under an Olympus MVX10 microscope at room temperature. After zebrafish embryos were acclimated to the new environment (room temperature, light), heart rate was counted by eye.
(§1) Morpholino antisense oligos (MO) were purchased from Gene Tools (Philomath, OR, United States) ([Fujii et al., 2020]). Zebrafish 1-cell embryos were injected with approximately 5 nL of MO solution at a concentration of 200 μM (approximately 10 ng/embryo).
Since DrHCN4 and DrHCN4L have similar sensitivities to the HCN inhibitors, individual gene knockdowns would be required for evaluating each channel’s role in heart rate regulation. Before knocking down each gene, we first confirmed that both HCN4 channels (DrHCN4 and DrHCN4L) were expressed in day 1, day 3, and day 7 embryos and in the heart and brain of adult fish (Figure 6A). We next investigated whether the knockdown of each gene affects heart rate in zebrafish. The expression of each gene was knocked down by using antisense morpholino (MO), which is commonly used in zebrafish ([Blum et al., 2015]; [Jou et al., 2017]; [Fujii et al., 2020]). MO solutions were injected into 1-cell embryos of zebrafish. […] Embryos were injected with control MO, DrHCN4 MO, and DrHCN4L MO at concentrations of 200 μM or with a mixture of DrHCN4 MO and DrHCN4L MO (200 μM for each). At 24 h after injection of MO, there was a slight decrease of heart rate in embryos injected with DrHCN4 MO (44 ± 2 bpm, p = 0.049) and DrHCN4L MO (45 ± 2 bpm, p = 0.092) compared to the heart rate in embryos injected with control MO (54 ± 1 bpm). […] After 48 h, heart rate was considerably lower in all three groups compared to that in the control group (135 ± 4 bpm): DrHCN4 MO (110 ± 3 bpm, p < 0.001), DrHCN4L MO (111 ± 1 bpm, p = 0.001), and mixture of DrHCN4 MO and DrHCN4L MO (116 ± 7 bpm, p = 0.014). However, at 72 h after MO injection, heart rate in all three groups had returned to the same level as that in the control group (145 ± 5 bpm): DrHCN4 MO (136 ± 3 bpm, p = 0.509), DrHCN4L MO (141 ± 5 bpm, p = 0.921), and mixture of DrHCN4 MO and DrHCN4L MO (147 ± 7 bpm, p = 0.991) (Figure 6B and Table 6).
(§2) FIGURE 6 Effects of HCN4 channel knockdown on zebrafish. (A) Expression of DrHCN4 and DrHCN4L in one (1), three (3), and seven (7) day embryos/larvae as well as in the heart (H) and brain (B) of adult fish was confirmed by RT-PCR. Arrows indicate the DNA ladder markers of 1,000 bp and 500 bp. (B) Heart rates at 24, 48, and 72 h are shown in bar graphs for 200 μM MO-injected zebrafish embryos: control MO (n = 20), DrHCN4 MO (n = 10), DrHCN4L MO (n = 10), and mixed DrHCN4 and DrHCN4L MO (n = 10). Statistical analysis was performed by Dunnett’s test. (C) Representative examples of zebrafish injected with control MO, DrHCN4 MO, DrHCN4L MO, and mixed DrHCN4 and DrHCN4L MO. […] Bar, 200 μm. (D) Ratios of normal embryos, pericardial edema, and death at 48 h after injection of 200 µM MO: control MO (n = 136), DrHCN4 MO (n = 75), DrHCN4L MO (n = 34), and mixed DrHCN4 and DrHCN4L MO (n = 30). (E) Pericardial edema and death ratios at 72 h after injection of 200 µM MO. Control MO (n = 136), DrHCN4 MO (n = 75), DrHCN4L MO (n = 34), and mixed DrHCN4 and DrHCN4L MO (n = 30).

In data set [2] the test system is developing zebrafish embryos. The data set is described as above. The following applies: Supplementary Figure S2, 52 hpf. In kind it is in vivo, zebrafish (Danio rerio).
A further data set concerns zebrafish embryos. The experiment in a line: Incidence of pericardial edema in MO-injected zebrafish embryos. The following applies: embryos surviving first 24 h. Format: in vivo, zebrafish (Danio rerio). The protocol:
as §1, §2
Pericardial edema is often observed in embryonic zebrafish with heart failure ([Narumanchi et al., 2021]). We determined the incidence of edema in zebrafish injected with 200 μM MO. We only examined zebrafish embryos that survived for the first 24 h after MO injection, and the rates of edema occurrence were determined at 48 and 72 h after injection. […] After 72 h, the proportions of embryos with edema increased to 79, 94, and 87% (Figure 6E).

For a further data set, the system named is adult zebrafish. More on the design: method as in Marchant and Farrell, 2019. The following applies: intraperitoneal injection, depending on test temperatures, ref Marchant and Farrell, 2019; cited from earlier work.
Setting [3] is: 48 h after injection of 200 μM MO.
The mark [4] stands for this setting: 72 h after injection of 200 μM MO.

Consider “5′-CCTCTTACCTCAGTTACAATTTATA -3′ [Control MO]”, for which the Heart rate is recorded as 54 ± 1 bpm in data set [1] (24 h after MO injection), 135 ± 4 bpm in data set [1] (48 h after MO injection) and 145 ± 5 bpm in data set [1] (72 h after MO injection). Further, the “Effect of injection on heart rate” value in data set [2] was “did not affect heart rate”.

As for “5′-GGCGACGCTGGCTGAAAAATAGGTC -3′ (all phosphorodiamidate morpholino (PMO)) [DrHCN4L MO, Morpholino antisense oligo against DrHCN4L (Gene Tools)]”, the Heart rate in data set [1] (24 h after MO injection) was 45 ± 2 bpm; in data set [1] (48 h after MO injection), 111 ± 1 bpm; in data set [1] (72 h after MO injection), 141 ± 5 bpm. Further, the entries for the “Embryos showing pericardial edema” value in the data set with zebrafish embryos (setting [3]) and in the data set on zebrafish embryos (setting [4]) were 62% and 94%, respectively.

Take “5′-GTAATTACTGCCACCGTGCACCACA-3′ (all phosphorodiamidate morpholino (PMO)) [DrHCN4 MO, Morpholino antisense oligo against DrHCN4 (Gene Tools)]”: the results for the Heart rate in data set [1] (24 h after MO injection), in data set [1] (48 h after MO injection) and in data set [1] (72 h after MO injection) were 44 ± 2 bpm, 110 ± 3 bpm and 136 ± 3 bpm, respectively. The “Embryos showing pericardial edema” value in the data set on zebrafish embryos (setting [3]) was determined as 59%; in the data set on zebrafish embryos (setting [4]) it was 79%.

Consider `COc1ccc(CCN(C)CCCN2CCc3cc(OC)c(OC)cc3CC2=O)cc1OC` [zatebradine], for which the “Reduction of maximum heart rate” value with adult zebrafish is 38–65%.
